Measured values as given in Sander's compilation of Henry's law constants (doi:10.1021/es970763v).

Assay: Henry solubility constant Hcp at 298.15 K (mol/(m3 Pa))
Details: reference: Welke et al. (1998)

Row | Structure (SMILES) | Henry solubility constant Hcp
1 | CC(Cl)CCl (stereo not drawn) [1,2-dichloropropane] | 0.0055
2 | Cc1ccccc1C [1,2-dimethylbenzene] | 0.0022
3 | C=C(C)C1CC=C(C)CC1 (stereo not drawn) [1-methyl-4-(1-methylethenyl)-cyclohexene] | 0.00024
4 | CCC[N+](=O)[O-] [1-nitropropane] | 0.16
5 | C=CC#N [2-propenenitrile] | 0.031
6 | C=CCCl [3-chloro-1-propene] | 0.0037
7 | CC(=O)CC(C)C [4-methyl-2-pentanone] | 0.047
8 | ClCC1CO1 (stereo not drawn) [(chloromethyl)-oxirane] | 0.29
9 | c1ccccc1 [benzene] | 0.0016
10 | CCCCOC(C)=O [butyl ethanoate] | 0.027
11 | Clc1ccccc1 [chlorobenzene] | 0.0027
12 | ClCCl [dichloromethane] | 3.7
13 | CC#N [ethanenitrile] | 0.34
14 | C=Cc1ccccc1 [ethenylbenzene] | 0.0025
15 | CCOC(C)=O [ethyl ethanoate] | 0.034
16 | Cc1ccccc1 [methylbenzene] | 0.0014
17 | CC(C)=O [propanone] | 0.096
18 | CCCOC(C)=O [propyl ethanoate] | 0.037
